Assay results: US10597388B2, “Pyridazinone herbicides” (FMC CORPORATION, priority 2014, dated 2020)

Experiments:
Assay in all cases: Test D controlled growth environment herbicide test, pre- and postemergence
Type in all cases: in vivo
[1] = tested on: barley, winter (winter barley, Hordeum vulgare)
Outline: (§1)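 Pre-emergence: seeds sown in silt loam soil were sprayed with compound in a non-phytotoxic solvent mix containing surfactant. Post-emergence: plants at 2 to 18 cm (1- to 4-leaf stage) in peat moss/vermiculite medium got the same formulation. Visual 0–100 rating versus controls after 14 to 21 d.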

[2] = tested on: radish, wild (wild radish, Raphanus raphanistrum)
Outline: as §1

[3] = tested on: field poppy (Papaver rhoeas)
Outline: as §1

[4] = tested on: blackgrass (Alopecurus myosuroides)
Outline: as §1

[5] = tested on: barley, spring (spring barley, Hordeum vulgare)
Outline: as §1

[6] = tested on: bluegrass (annual bluegrass, Poa annua)
Outline: as §1

kochia (Kochia scoparia) = tested on: kochia (Kochia scoparia)
Outline: as §1

[7] = tested on: mustard, wild (wild mustard, Sinapis arvensis)
Outline: as §1

[8] = tested on: Russian thistle (Salsola kali)
Outline: as §1

[9] = tested on: wheat, spring (spring wheat, Triticum aestivum)
Outline: as §1

[10] = tested on: speedwell (bird's-eye speedwell, Veronica persica)
Outline: as §1

[11] = tested on: oat, wild (wild oat, Avena fatua)
Outline: as §1

[12] = tested on: pigweed (Amaranthus retroflexus)
Outline: as §1

[13] = Postemergence, 31 g ai/ha, scale 0 to 100 (0 no effect, 100 complete control)
[14] = Postemergence, 125 g ai/ha, visual rating on scale 0 (no effect) to 100 (complete control), 14 to 21 d
[15] = Postemergence, 250 g ai/ha, scale 0 to 100 (0 no effect, 100 complete control)
[16] = Preemergence, 62 g ai/ha, scale 0 to 100 (0 no effect, 100 complete control)
[17] = Preemergence, 125 g ai/ha, scale 0 to 100 (0 no effect, 100 complete control)
[18] = Preemergence, 250 g ai/ha, scale 0 to 100, 0 no effect, 100 complete control
[19] = postemergence, 62 g ai/ha, scale 0 to 100, 0 no effect, 100 complete control

Cc1nn(C)c(=O)c(-c2c(C)sc3c(C)cc(Cl)cc23)c1O [Compound 35]
85: Radish, Wild plant response rating [2, 13] | Plant response rating, Field Poppy [3, 16] | Plant response rating, Blackgrass [4, 15] | Plant response rating, Blackgrass [4, 16] | Plant response rating, Blackgrass [4, 17] | Plant response rating (scale of 0 to 100), Mustard, Wild ([7]; Preemergence, 31 g ai/ha) | Plant response rating, Russian Thistle [8, 14] | Oat, Wild plant response rating [11, 13] | Plant response rating, Oat, Wild [11, 14] | Plant response rating, Oat, Wild [11, 17] | Plant response rating, Pigweed [12, 14]
75: Plant response rating (scale of 0 to 100), Field Poppy ([3]; Preemergence, 31 g ai/ha) | Plant response rating, Blackgrass [4, 14] | Plant response rating (scale of 0 to 100), Blackgrass ([4]; Preemergence, 31 g ai/ha) | Plant response rating, Russian Thistle [8, 19] | Plant response rating, Speedwell [10, 16] | Plant response rating, Speedwell [10, 19] | Plant response rating (scale of 0 to 100), Oat, Wild ([11]; Preemergence, 31 g ai/ha)
10: Plant response rating, Barley, Spring [5, 14]
25: Plant response rating (scale of 0 to 100), Bluegrass ([6]; Preemergence, 31 g ai/ha) | Plant response rating, Bluegrass [6, 16] | Plant response rating, Bluegrass [6, 19] | Kochia plant response rating (kochia (Kochia scoparia); [13]) | Plant response rating, Kochia (kochia (Kochia scoparia); [18]) | Plant response rating, Russian Thistle [8, 18] | Plant response rating, Wheat, Spring [9, 14] | Plant response rating (scale of 0 to 100), Pigweed ([12]; Preemergence, 31 g ai/ha)
95: Blackgrass plant response rating [4, 18] | Plant response rating, Russian Thistle [8, 15] | Plant response rating, Oat, Wild [11, 18] | Plant response rating, Pigweed [12, 16]
40: Plant response rating, Bluegrass [6, 15]
65: Plant response rating, Blackgrass [4, 19] | Plant response rating, Kochia (kochia (Kochia scoparia); [14])
15: Plant response rating, Barley, Winter [1, 15] | Plant response rating, Barley, Spring [5, 15] | Wheat, Spring plant response rating [9, 13]
35: Plant response rating (scale of 0 to 100), Radish, Wild ([2]; Preemergence, 31 g ai/ha) | Bluegrass plant response rating [6, 13] | Plant response rating, Bluegrass [6, 14] | Plant response rating, Bluegrass [6, 17]
0: Plant response rating, Barley, Winter [1, 13] | Plant response rating, Barley, Winter [1, 14] | Plant response rating (scale of 0 to 100), Barley, Winter ([1]; Preemergence, 31 g ai/ha) | Plant response rating, Barley, Winter [1, 16] | Plant response rating, Barley, Winter [1, 17] | Barley, Winter plant response rating [1, 18] | Plant response rating, Barley, Winter [1, 19] | Plant response rating, Barley, Spring [5, 13] | Plant response rating (scale of 0 to 100), Barley, Spring ([5]; Preemergence, 31 g ai/ha) | Plant response rating, Barley, Spring [5, 16] | Plant response rating, Barley, Spring [5, 17] | Barley, Spring plant response rating [5, 18] | Plant response rating, Barley, Spring [5, 19] | Plant response rating (scale of 0 to 100), Kochia (kochia (Kochia scoparia); Preemergence, 31 g ai/ha) | Plant response rating, Kochia (kochia (Kochia scoparia); [16]) | Plant response rating (scale of 0 to 100), Russian Thistle ([8]; Preemergence, 31 g ai/ha) | Plant response rating, Russian Thistle [8, 16] | Plant response rating, Russian Thistle [8, 17] | Plant response rating (scale of 0 to 100), Wheat, Spring ([9]; Preemergence, 31 g ai/ha) | Plant response rating, Wheat, Spring [9, 16] | Plant response rating (scale of 0 to 100), Speedwell ([10]; Preemergence, 31 g ai/ha)
98: Mustard, Wild plant response rating [7, 13] | Plant response rating, Oat, Wild [11, 15] | Plant response rating, Pigweed [12, 15]
90: Plant response rating, Oat, Wild [11, 19]
70: Plant response rating, Kochia (kochia (Kochia scoparia); [15]) | Russian Thistle plant response rating [8, 13] | Speedwell plant response rating [10, 13]
20: Plant response rating, Kochia (kochia (Kochia scoparia); [17]) | Plant response rating, Kochia (kochia (Kochia scoparia); [19]) | Plant response rating, Wheat, Spring [9, 19]
100: Plant response rating, Radish, Wild [2, 14] | Plant response rating, Radish, Wild [2, 15] | Plant response rating, Radish, Wild [2, 16] | Plant response rating, Radish, Wild [2, 17] | Plant response rating, Radish, Wild [2, 18] | Plant response rating, Radish, Wild [2, 19] | Field Poppy plant response rating [3, 13] | Plant response rating, Field Poppy [3, 14] | Plant response rating, Field Poppy [3, 15] | Plant response rating, Field Poppy [3, 17] | Plant response rating, Field Poppy [3, 18] | Plant response rating, Field Poppy [3, 19] | Plant response rating, Mustard, Wild [7, 14] | Plant response rating, Mustard, Wild [7, 15] | Plant response rating, Mustard, Wild [7, 16] | Plant response rating, Mustard, Wild [7, 17] | Plant response rating, Mustard, Wild [7, 18] | Plant response rating, Mustard, Wild [7, 19] | Plant response rating, Speedwell [10, 15] | Plant response rating, Speedwell [10, 17] | Plant response rating, Speedwell [10, 18] | Plant response rating, Pigweed [12, 17] | Plant response rating, Pigweed [12, 18]
45: Bluegrass plant response rating [6, 18]
80: Plant response rating, Speedwell [10, 14] | Plant response rating, Oat, Wild [11, 16] | Pigweed plant response rating [12, 13] | Plant response rating, Pigweed [12, 19]
5: Plant response rating, Wheat, Spring [9, 17]
30: Blackgrass plant response rating [4, 13] | Plant response rating, Wheat, Spring [9, 15] | Plant response rating, Wheat, Spring [9, 18]
